Results as given in paper PMC5392334, “Discovery and characterization of a novel irreversible EGFR mutants selective and potent kinase inhibitor CHMFL-EGFR-26 with a distinct binding mode” (Oncotarget, 2017).

Experiments:
CSK = target: T1, CSK (Homo sapiens, UniProt P41240); assay: KinomeScan; assay type: binding; details: read-out: % control
T1 construct: purchased DiscoveRx KINOMEscan

LCK = target: T2, LCK (Homo sapiens, UniProt P06239); assay: KinomeScan; assay type: binding; details: read-out: % control
T2 construct: purchased DiscoveRx KINOMEscan

CSNK1D = target: T3, CSNK1D (Homo sapiens, UniProt P48730); assay: KinomeScan; assay type: binding; details: read-out: % control
T3 construct: purchased DiscoveRx KINOMEscan

EGFR(G719C) = target: T4, EGFR(G719C) (Homo sapiens, UniProt P00533, G719C); assay: KinomeScan; assay type: binding; details: read-out: % control
T4 construct: purchased DiscoveRx KINOMEscan

TNK2 = target: T5, TNK2 (Homo sapiens, UniProt Q07912); assay: KinomeScan; assay type: binding; details: read-out: % control
T5 construct: purchased DiscoveRx KINOMEscan

NEK11 = target: T6, NEK11 (Homo sapiens, UniProt Q8NG66); assay: KinomeScan; assay type: binding; details: read-out: % control
T6 construct: purchased DiscoveRx KINOMEscan

TAOK2 = target: T7, TAOK2 (Homo sapiens, UniProt Q9UL54); assay: KinomeScan; assay type: binding; details: read-out: % control
T7 construct: purchased DiscoveRx KINOMEscan

CAMK2D = target: T8, CAMK2D (Homo sapiens, UniProt Q13557); assay: KinomeScan; assay type: binding; details: read-out: % control
T8 construct: purchased DiscoveRx KINOMEscan

JNK3 = target: T9, JNK3 (Homo sapiens, UniProt P53779); assay: KinomeScan; assay type: binding; details: read-out: % control
T9 construct: purchased DiscoveRx KINOMEscan

ROCK1 = target: T10, ROCK1 (Homo sapiens, UniProt Q13464); assay: KinomeScan; assay type: binding; details: read-out: % control
T10 construct: purchased DiscoveRx KINOMEscan

EGFR(T790M) = target: T11, EGFR(T790M) (Homo sapiens, UniProt P00533, T790M); assay: KinomeScan; assay type: binding; details: read-out: % control
T11 construct: purchased DiscoveRx KINOMEscan

CIT = target: T12, CIT (Homo sapiens, UniProt O14578); assay: KinomeScan; assay type: binding; details: read-out: % control
T12 construct: purchased DiscoveRx KINOMEscan

CDK4-cyclinD3 = target: T13, CDK4-cyclinD3 (Homo sapiens, UniProt P11802); assay: KinomeScan; assay type: binding; details: read-out: % control
T13 construct: purchased DiscoveRx KINOMEscan

CAMK2B = target: T14, CAMK2B (Homo sapiens, UniProt Q13554); assay: KinomeScan; assay type: binding; details: read-out: % control
T14 construct: purchased DiscoveRx KINOMEscan

ADCK3 = target: T15, ADCK3 (Homo sapiens, UniProt Q8NI60); assay: KinomeScan; assay type: binding; details: read-out: % control
T15 construct: purchased DiscoveRx KINOMEscan

ACVR1 = target: T16, ACVR1 (Homo sapiens, UniProt Q04771); assay: KinomeScan; assay type: binding; details: read-out: % control
T16 construct: purchased DiscoveRx KINOMEscan

MRCKA = target: T17, MRCKA (Homo sapiens, UniProt Q5VT25); assay: KinomeScan; assay type: binding; details: read-out: % control
T17 construct: purchased DiscoveRx KINOMEscan

ULK2 = target: T18, ULK2 (Homo sapiens, UniProt Q8IYT8); assay: KinomeScan; assay type: binding; details: read-out: % control
T18 construct: purchased DiscoveRx KINOMEscan

MAP4K4 = target: T19, MAP4K4 (Homo sapiens, UniProt O95819); assay: KinomeScan; assay type: binding; details: read-out: % control
T19 construct: purchased DiscoveRx KINOMEscan

BTK = target: T20, BTK (Homo sapiens, UniProt Q06187); assay: KinomeScan; assay type: binding; details: read-out: % control
T20 construct: purchased Invitrogen (SelectScreen service)

CAMK1 = target: T21, CAMK1 (Homo sapiens, UniProt Q14012); assay: KinomeScan; assay type: binding; details: read-out: % control
T21 construct: purchased DiscoveRx KINOMEscan

MEK1 = target: T22, MEK1 (Homo sapiens, UniProt Q02750); assay: KinomeScan; assay type: binding; details: read-out: % control
T22 construct: purchased Invitrogen (SelectScreen service)

PFTK1 = target: T23, PFTK1 (Homo sapiens, UniProt O94921); assay: KinomeScan; assay type: binding; details: read-out: % control
T23 construct: purchased DiscoveRx KINOMEscan

PRKCQ = target: T24, PRKCQ (Homo sapiens, UniProt Q04759); assay: KinomeScan; assay type: binding; details: read-out: % control
T24 construct: purchased DiscoveRx KINOMEscan

FGR = target: T25, FGR (Homo sapiens, UniProt P09769); assay: KinomeScan; assay type: binding; details: read-out: % control
T25 construct: purchased DiscoveRx KINOMEscan

BMX = target: T26, BMX (Homo sapiens, UniProt P51813); assay: KinomeScan; assay type: binding; details: read-out: % control
T26 construct: purchased Invitrogen (SelectScreen service)

BaF3-TEL-EGFR-T790M = assay: Anti-proliferation, BaF3 isogenic cell lines (CellTiter-Glo); assay type: cell-based; details: Mus musculus, 72 hours, triplet testing
STK16 = target: T27, STK16 (Homo sapiens, UniProt O75716); assay: KinomeScan; assay type: binding; details: read-out: % control
T27 construct: purchased DiscoveRx KINOMEscan

GRK3 = target: T28, GRK3 (Homo sapiens, UniProt P35626); assay: KinomeScan; assay type: binding; details: read-out: % control
T28 construct: purchased DiscoveRx KINOMEscan

NEK1 = target: T29, NEK1 (Homo sapiens, UniProt Q96PY6); assay: KinomeScan; assay type: binding; details: read-out: % control
T29 construct: purchased DiscoveRx KINOMEscan

CHEK2 = target: T30, CHEK2 (Homo sapiens, UniProt O96017); assay: KinomeScan; assay type: binding; details: read-out: % control
T30 construct: purchased DiscoveRx KINOMEscan

[1] = system: NSCLC cell lines (H1975, HCC827, PC9, H3255; EGFR wt lines); assay: Apoptosis effect examination (Caspase-3 and PARP cleavage); assay type: cell-based, human
From the text: We then examined CHMFL-EGFR-26's effect on cell cycle progression and apoptosis.
Cells were then washed in PBS and lysed in cell lysis buffer. PARP, Caspase-3, GAPDH antibodies were used for immunoblotting.

ZAK = target: T31, ZAK (Homo sapiens, UniProt Q9NYL2); assay: KinomeScan; assay type: binding; details: read-out: % control
T31 construct: purchased DiscoveRx KINOMEscan

IKK-epsilon = target: T32, IKK-epsilon (Homo sapiens, UniProt Q14164); assay: KinomeScan; assay type: binding; details: read-out: % control
T32 construct: purchased DiscoveRx KINOMEscan

TAK1 = target: T33, TAK1 (Homo sapiens, UniProt O43318); assay: KinomeScan; assay type: binding; details: read-out: % control
T33 construct: purchased DiscoveRx KINOMEscan

CLK2 = target: T34, CLK2 (Homo sapiens, UniProt P49760); assay: KinomeScan; assay type: binding; details: read-out: % control
T34 construct: purchased DiscoveRx KINOMEscan

PRP4 = target: T35, PRP4 (Homo sapiens, UniProt Q13523); assay: KinomeScan; assay type: binding; details: read-out: % control
T35 construct: purchased DiscoveRx KINOMEscan

STK39 = target: T36, STK39 (Homo sapiens, UniProt Q9UEW8); assay: KinomeScan; assay type: binding; details: read-out: % control
T36 construct: purchased DiscoveRx KINOMEscan

PDPK1 = target: T37, PDPK1 (Homo sapiens, UniProt O15530); assay: KinomeScan; assay type: binding; details: read-out: % control
T37 construct: purchased DiscoveRx KINOMEscan

FLT3(N841I) = target: T38, FLT3(N841I) (Homo sapiens, UniProt P36888, N841I); assay: KinomeScan; assay type: binding; details: read-out: % control
T38 construct: purchased DiscoveRx KINOMEscan

FLT3(D835H) = target: T39, FLT3(D835H) (Homo sapiens, UniProt P36888, D835H); assay: KinomeScan; assay type: binding; details: read-out: % control
T39 construct: purchased DiscoveRx KINOMEscan

EPHA4 = target: T40, EPHA4 (Homo sapiens, UniProt P54764); assay: KinomeScan; assay type: binding; details: read-out: % control
T40 construct: purchased DiscoveRx KINOMEscan

T30 sequence (O96017 whole entry): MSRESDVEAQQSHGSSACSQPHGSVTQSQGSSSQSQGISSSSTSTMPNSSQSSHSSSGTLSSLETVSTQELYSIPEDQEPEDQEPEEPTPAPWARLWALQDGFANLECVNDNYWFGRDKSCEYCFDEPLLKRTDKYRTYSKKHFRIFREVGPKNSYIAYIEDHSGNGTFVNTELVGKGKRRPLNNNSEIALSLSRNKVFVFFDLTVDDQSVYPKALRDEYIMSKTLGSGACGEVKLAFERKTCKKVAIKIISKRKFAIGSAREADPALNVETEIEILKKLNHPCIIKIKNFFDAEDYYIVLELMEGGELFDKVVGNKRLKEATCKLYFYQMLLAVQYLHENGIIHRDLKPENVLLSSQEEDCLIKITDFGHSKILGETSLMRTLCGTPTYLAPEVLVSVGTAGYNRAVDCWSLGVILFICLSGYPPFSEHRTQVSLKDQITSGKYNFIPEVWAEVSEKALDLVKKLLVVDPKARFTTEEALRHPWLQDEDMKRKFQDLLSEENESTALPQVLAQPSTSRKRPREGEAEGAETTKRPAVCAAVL
T29 sequence (Q96PY6 whole entry): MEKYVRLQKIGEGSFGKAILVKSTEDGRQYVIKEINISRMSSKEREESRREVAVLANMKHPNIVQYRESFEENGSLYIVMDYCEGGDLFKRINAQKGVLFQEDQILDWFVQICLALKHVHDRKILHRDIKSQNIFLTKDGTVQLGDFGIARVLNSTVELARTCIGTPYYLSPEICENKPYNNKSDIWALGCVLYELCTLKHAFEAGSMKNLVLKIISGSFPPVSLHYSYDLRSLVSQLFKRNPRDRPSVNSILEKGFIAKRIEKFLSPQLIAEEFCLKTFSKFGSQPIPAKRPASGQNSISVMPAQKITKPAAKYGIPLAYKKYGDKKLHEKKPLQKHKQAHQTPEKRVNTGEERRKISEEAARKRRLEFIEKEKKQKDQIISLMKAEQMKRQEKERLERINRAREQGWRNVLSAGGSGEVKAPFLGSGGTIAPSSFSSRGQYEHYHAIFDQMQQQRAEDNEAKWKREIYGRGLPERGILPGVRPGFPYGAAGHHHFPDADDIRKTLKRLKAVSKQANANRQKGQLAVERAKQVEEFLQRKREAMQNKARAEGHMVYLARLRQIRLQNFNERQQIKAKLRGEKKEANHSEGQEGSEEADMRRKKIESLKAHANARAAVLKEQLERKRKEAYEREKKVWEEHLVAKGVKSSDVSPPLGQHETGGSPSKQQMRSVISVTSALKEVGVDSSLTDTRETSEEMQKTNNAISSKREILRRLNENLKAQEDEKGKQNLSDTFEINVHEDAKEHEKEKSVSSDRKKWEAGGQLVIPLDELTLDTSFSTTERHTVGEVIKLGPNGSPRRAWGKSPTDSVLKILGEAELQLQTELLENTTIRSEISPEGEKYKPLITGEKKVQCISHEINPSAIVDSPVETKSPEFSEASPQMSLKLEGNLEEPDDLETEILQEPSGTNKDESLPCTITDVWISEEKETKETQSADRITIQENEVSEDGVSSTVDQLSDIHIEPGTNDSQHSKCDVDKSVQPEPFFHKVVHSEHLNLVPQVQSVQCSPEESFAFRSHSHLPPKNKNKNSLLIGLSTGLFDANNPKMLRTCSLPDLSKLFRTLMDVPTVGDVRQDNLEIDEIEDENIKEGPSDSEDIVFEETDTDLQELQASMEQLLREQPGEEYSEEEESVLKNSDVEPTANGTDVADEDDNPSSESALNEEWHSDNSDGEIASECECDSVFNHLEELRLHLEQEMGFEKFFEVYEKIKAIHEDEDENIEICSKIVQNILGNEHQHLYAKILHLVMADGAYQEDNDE
T13 sequence (P11802 whole entry): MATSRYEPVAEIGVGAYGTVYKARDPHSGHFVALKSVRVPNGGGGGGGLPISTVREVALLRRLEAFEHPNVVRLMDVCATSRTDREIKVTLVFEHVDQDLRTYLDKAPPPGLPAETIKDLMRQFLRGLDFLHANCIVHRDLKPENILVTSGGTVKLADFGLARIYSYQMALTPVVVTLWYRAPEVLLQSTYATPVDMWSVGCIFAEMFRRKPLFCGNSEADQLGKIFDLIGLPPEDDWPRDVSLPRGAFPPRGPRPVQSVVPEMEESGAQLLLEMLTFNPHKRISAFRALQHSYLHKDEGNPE
T13 sequence (P30281 whole entry partner): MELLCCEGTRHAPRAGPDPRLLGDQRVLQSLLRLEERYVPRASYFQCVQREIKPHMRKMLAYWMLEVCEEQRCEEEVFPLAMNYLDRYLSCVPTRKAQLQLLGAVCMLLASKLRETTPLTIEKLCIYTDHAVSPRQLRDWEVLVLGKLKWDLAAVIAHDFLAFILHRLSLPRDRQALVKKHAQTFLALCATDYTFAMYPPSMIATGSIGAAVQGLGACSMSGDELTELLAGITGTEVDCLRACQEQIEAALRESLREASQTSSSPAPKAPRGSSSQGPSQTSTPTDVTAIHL
T9 sequence (P53779 whole entry): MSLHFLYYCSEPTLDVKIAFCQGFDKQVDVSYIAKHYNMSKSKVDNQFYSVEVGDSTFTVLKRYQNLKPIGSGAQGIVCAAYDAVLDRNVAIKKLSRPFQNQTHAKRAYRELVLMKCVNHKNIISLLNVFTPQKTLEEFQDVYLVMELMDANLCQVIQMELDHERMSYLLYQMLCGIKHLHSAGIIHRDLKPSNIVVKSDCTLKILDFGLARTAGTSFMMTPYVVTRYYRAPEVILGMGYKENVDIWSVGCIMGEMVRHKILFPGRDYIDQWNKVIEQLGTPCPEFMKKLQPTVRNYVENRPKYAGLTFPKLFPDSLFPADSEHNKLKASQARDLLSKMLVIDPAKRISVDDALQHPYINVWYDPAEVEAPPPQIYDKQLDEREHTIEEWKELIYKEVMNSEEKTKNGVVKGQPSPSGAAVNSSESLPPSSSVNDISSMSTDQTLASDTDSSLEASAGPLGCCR
T33 sequence (O43318 whole entry): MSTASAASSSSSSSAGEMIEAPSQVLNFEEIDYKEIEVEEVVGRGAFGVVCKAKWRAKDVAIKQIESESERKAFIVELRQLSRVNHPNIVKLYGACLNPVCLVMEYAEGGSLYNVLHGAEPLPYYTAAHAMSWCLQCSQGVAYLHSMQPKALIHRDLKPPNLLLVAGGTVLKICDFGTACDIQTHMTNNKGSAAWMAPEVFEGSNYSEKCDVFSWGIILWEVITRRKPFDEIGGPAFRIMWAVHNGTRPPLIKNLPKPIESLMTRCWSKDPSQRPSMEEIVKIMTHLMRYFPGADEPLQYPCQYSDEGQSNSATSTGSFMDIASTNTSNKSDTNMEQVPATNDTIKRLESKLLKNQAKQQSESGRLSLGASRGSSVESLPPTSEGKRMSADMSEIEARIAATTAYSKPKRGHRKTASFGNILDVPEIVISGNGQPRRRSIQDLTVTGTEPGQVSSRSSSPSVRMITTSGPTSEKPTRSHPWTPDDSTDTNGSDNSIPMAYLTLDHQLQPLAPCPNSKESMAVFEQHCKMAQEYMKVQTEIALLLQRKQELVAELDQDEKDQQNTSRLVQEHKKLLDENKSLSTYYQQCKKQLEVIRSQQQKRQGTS
T37 sequence (O15530 whole entry): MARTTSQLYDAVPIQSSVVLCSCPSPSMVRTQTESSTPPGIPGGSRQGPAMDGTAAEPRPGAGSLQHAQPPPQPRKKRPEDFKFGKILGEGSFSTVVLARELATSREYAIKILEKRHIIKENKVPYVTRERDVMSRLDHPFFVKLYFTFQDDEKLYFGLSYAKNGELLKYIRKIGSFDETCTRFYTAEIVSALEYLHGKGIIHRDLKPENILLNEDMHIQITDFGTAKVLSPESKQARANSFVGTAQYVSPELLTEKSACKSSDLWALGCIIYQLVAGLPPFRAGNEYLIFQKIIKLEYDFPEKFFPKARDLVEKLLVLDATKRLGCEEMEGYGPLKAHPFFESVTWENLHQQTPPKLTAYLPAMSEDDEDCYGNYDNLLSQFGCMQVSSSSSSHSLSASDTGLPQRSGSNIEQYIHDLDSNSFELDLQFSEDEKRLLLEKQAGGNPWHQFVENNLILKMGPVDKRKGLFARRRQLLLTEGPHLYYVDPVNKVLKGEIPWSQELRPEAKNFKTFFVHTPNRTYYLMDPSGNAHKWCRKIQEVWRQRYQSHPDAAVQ
T3 sequence (P48730 whole entry): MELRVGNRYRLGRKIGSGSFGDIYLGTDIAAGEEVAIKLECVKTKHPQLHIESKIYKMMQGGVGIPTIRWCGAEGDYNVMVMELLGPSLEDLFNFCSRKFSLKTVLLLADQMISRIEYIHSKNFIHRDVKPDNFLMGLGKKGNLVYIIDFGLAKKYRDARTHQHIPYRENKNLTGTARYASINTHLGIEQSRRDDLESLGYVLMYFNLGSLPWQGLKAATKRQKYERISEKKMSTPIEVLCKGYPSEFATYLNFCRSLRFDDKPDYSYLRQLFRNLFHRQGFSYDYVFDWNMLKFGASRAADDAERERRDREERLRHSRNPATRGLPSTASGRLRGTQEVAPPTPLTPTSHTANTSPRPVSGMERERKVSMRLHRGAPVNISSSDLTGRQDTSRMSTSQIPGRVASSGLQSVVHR
T15 sequence (Q8NI60 163-647): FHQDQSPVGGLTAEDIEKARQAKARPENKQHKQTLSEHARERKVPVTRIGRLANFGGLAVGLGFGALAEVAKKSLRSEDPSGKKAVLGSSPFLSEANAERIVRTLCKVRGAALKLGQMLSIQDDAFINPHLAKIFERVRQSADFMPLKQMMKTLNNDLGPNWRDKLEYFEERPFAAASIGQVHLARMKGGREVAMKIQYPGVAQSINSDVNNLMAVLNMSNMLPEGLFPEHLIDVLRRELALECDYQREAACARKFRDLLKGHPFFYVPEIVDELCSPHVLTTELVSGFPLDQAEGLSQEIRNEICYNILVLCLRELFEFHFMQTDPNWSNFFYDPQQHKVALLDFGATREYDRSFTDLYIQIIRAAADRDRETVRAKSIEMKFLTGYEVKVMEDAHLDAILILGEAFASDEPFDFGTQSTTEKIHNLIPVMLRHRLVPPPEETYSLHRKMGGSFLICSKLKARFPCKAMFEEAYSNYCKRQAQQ

Structure (SMILES): C=CC(=O)N1CCC[C@@H](n2nc(-c3ccc(OCc4cccc(C)n4)c(Cl)c3)c3c(N)ncnc32)C1 [CHMFL-EGFR-26]
- remaining binding at 1 µM (CSK): 32%
- remaining binding at 1 µM (LCK): 33%
- remaining binding at 1 µM (CSNK1D): 95%
- remaining binding at 1 µM (EGFR(G719C)): 16%
- remaining binding at 1 µM (TNK2): 93%
- remaining binding at 1 µM (NEK11): 100%
- remaining binding at 1 µM (TAOK2): 78%
- remaining binding at 1 µM (CAMK2D): 91%
- remaining binding at 1 µM (JNK3): 86%
- remaining binding at 1 µM (ROCK1): 100%
- remaining binding at 1 µM (EGFR(T790M)): 0.25%
- remaining binding at 1 µM (CIT): 90%
- remaining binding at 1 µM (CDK4-cyclinD3): 100%
- remaining binding at 1 µM (CAMK2B): 97%
- remaining binding at 1 µM (ADCK3): 100%
- remaining binding at 1 µM (ACVR1): 96%
- remaining binding at 1 µM (MRCKA): 64%
- remaining binding at 1 µM (ULK2): 97%
- remaining binding at 1 µM (MAP4K4): 46%
- remaining binding at 1 µM (BTK): 0.45%
- remaining binding at 1 µM (CAMK1): 100%
- remaining binding at 1 µM (MEK1): 0.3%
- remaining binding at 1 µM (PFTK1): 100%
- remaining binding at 1 µM (PRKCQ): 57%
- remaining binding at 1 µM (FGR): 86%
- remaining binding at 1 µM (BMX): 27%
- GI50 (BaF3-TEL-EGFR-T790M): < 0.3 nM
- remaining binding at 1 µM (STK16): 100%
- remaining binding at 1 µM (GRK3): 100%
- remaining binding at 1 µM (NEK1): 92%
- remaining binding at 1 µM (CHEK2): 88%
- Caspase-3 and PARP cleavage (apoptosis) ([1]; EGFR wt NSCLC cell lines, 72hrs): no cleaved Caspase-3 and PARP detected
- Caspase-3 and PARP cleavage (apoptosis) ([1]; H1975, HCC827, PC9 and H3255, 30nM, 24hrs): sufficient to induce Caspase-3 and PARP cleavage
- remaining binding at 1 µM (ZAK): 100%
- remaining binding at 1 µM (IKK-epsilon): 100%
- remaining binding at 1 µM (TAK1): 100%
- remaining binding at 1 µM (CLK2): 96%
- remaining binding at 1 µM (PRP4): 78%
- remaining binding at 1 µM (STK39): 92%
- remaining binding at 1 µM (PDPK1): 97%
- remaining binding at 1 µM (FLT3(N841I)): 93%
- remaining binding at 1 µM (FLT3(D835H)): 100%
- remaining binding at 1 µM (EPHA4): 100%
